According to patent US8119589B2, “Modulation of CD4+ T cell responses by a tick saliva protein, Salp15 and polypeptides derived therefrom” (University of North Carolina at Charlotte, priority 2004, dated 2012):

How the values were obtained:
Jurkat clone E6-1 = experiment: TCR ligation-induced tyrosine phosphorylation in stimulated Jurkat cells; format: cell-based, human
Description: Naïve CD4+ T cells from C3H/HeN, Balb/c, and B10.BR mice were purified as previously described (Anguita et al., 2002). CD4+ T cells were preincubated in Click's modified Bruff's Medium (Sigma Chemical Co., St. Louis, Mo., U.S.A.) for 10 minutes at 37° C. with and without Salp15 (50 μg/mL) and stimulated for 20 min or the indicated times at 37° C. with 10 μg/mL of anti-CD3ε, 1 μg/mL of anti-CD28, and 10 μg/mL of anti-armenian and syrian hamster IgG (BD Biosciences Pharmingen, San Jose, Calif., U.S.A.). Jurkat (E6-1) cells were stimulated using 5 μg/mL of OKT3 mAb (eBioscience, San Diego, Calif., U.S.A.) and 1 μg/mL of anti-human CD28 cross linked with 5 μg/mL anti-mouse IgG for the indicated times.
For the visualization of lipid rafts, phospho-tyrosine, and cytoskeleton reorganization, CD4^+, CD8^+ or Jurkat cells were cytospun for 10 minutes at 1000 RPM onto positively charged microslides (Fisher Scientific, Hampton, N.H., U.S.A.). The cells were fixed with 3.7% paraformaldehyde (Sigma Chemical Co.) for 15 minutes and stained with CTB594 (Molecular Probes, Eugene, Oreg., U.S.A.), AlexaFluor488 labeled phalloidin (Molecular Probes) or (1:50) biotin-conjugated anti-p-Tyr (PY99) followed by Streptavidin-AlexaFluor594 (1:100, Molecular Probes). […]

Jurkat cells = experiment: Actin polymerization (phalloidin488 staining, F-actin immunoblot) in activated Jurkat cells; format: cell-based, human; conditions: Salp15 pretreatment
Description: For the visualization of lipid rafts, phospho-tyrosine, and cytoskeleton reorganization, CD4^+, CD8^+ or Jurkat cells were cytospun for 10 minutes at 1000 RPM onto positively charged microslides (Fisher Scientific, Hampton, N.H., U.S.A.). The cells were fixed with 3.7% paraformaldehyde (Sigma Chemical Co.) for 15 minutes and stained with CTB594 (Molecular Probes, Eugene, Oreg., U.S.A.), AlexaFluor488 labeled phalloidin (Molecular Probes) or (1:50) biotin-conjugated anti-p-Tyr (PY99) followed by Streptavidin-AlexaFluor594 (1:100, Molecular Probes). For p-LAT and p-PLCγ1 staining, fixed cells were treated with PBS containing 0.1% Triton-X 100 and 100 mM glycine for 15 min at room temperature and stained using rabbit p-LAT (Tyr^191) or rabbit anti-p-PLCγ1 (Tyr^783) probed with anti-rabbit IgG488 (Molecular Probes).
The amount of F-actin in activated CD4+ T cells in the presence and absence of Salp15 was quantified by ultracentrifugation and Western blotting. CD4^+ T cells were activated as described above for 2 min. Cells were lysed in HEPES buffer containing Triton X-100 (10 mM NaCl, 135 mM KCl, 2 mM MgCl2, 2 mM EGTA, 10 mM HEPES pH 7.15, 1% Triton X-100, 0.01 mg/ml aprotinin, 0.01 mg/ml leupeptin, 1 mM PMSF). […] Equal amounts of total protein were loaded on the SDS-gel based on the total actin determined from a sample of the cell lysate.

CD4 co-receptor = target: T1, CD4 co-receptor (Homo sapiens, UniProt P01730); experiment: Co-immunoprecipitation with His-tagged Salp15 from Jurkat cell lysate; format: binding; conditions: anti-His
T1 construct: 1-2×10^7 Jurkat, HeLa or HeLa-CD4 cells were lysed; endogenous in cells; host or cells: Jurkat
Description: For coimmunoprecipitation, 1-2×10^7 Jurkat, HeLa or HeLa-CD4 cells were lysed in 20 mM HEPES pH 7.4 containing 150 mM NaCl, 1% Triton-X 100, 0.25% sodium deoxycholate, 25 mM NaF, 2 mM Na3VO4, 1 mM PMSF and protease inhibitors for 15 min on ice. One mg of protein equivalent of the cell lysate was mixed with 50 μg/mL of 6× histidine-tagged-Salp15 or 6×His-tagged Salp13 fused to thioredoxin (29 kD) as a control protein, (Anguita et al., 2002, Das et al., 2001) and immunoprecipitated using an anti-poly-histidine antibody conjugated to agarose, anti-CD4, anti-CD3, anti-CD28 or normal rabbit IgG overnight at 4° C. The immunoprecipitate was run on SDS-PAGE followed by immunoblotting with anti-poly His-HRP, anti-CD4, anti-CD3, anti-CD28 or anti-TCRβ.

[1] = test system: CD4+ T cells from DO11.10 transgenic mice; experiment: IL-2 production by DO11.10 transgenic CD4+ T cells activated with ovalbumin and APCs; format: cell-based, mouse; conditions: 0.5, 5.0 and 50 μg/mL Salp15; ovalbumin; 72 hrs
Description: T-cells from CD4-deficient and B6 mice (The Jackson Laboratory, Bar Harbor, Me., U.S.A.) were purified by negative selection and activated for 72 hrs using 5 μg/ml of plate bound anti-CD3 and 1 μg/ml of anti-CD28 in the presence or absence of 50 μg/mL of Salp15. DO11.10 transgenic mouse (The Jackson Laboratory) CD4^+ T cells were purified by negative selection as before and incubated in the presence of 106/mL of syngeneic mitomycin C-treated (50 μg/ml for 40 min at 37° C.) antigen presenting cells (APCs) with 10 μg/mL of ovalbumin in the presence of 0.5, 5.0 and 50 μg/mL of Salp15 for 72 hrs. The supernatants were then collected and IL-2 measured by capture ELISA following the manufacturer's instruction (BD Biosciences Pharmingen).

AP-1 DNA binding = conditions: Anguita et al., 2002; cited from earlier work

Salp15: secreted salivary protein from Ixodes scapularis, SEQ ID NO: 2; recombinant His-tagged, produced in Drosophila S2 cells
Inhibitory effects on TCR ligation-induced tyrosine phosphorylation (Jurkat clone E6-1; Jurkat cells, anti-pTyr staining): also observed
Inhibition of PLCγ1 phosphorylation (Jurkat clone E6-1; Jurkat clone E6-1): also evident
Phalloidin488 staining / amount of F-actin (Jurkat cells): reduced
Co-immunoprecipitation of CD4 (CD4 co-receptor): co-immunoprecipitated
Inhibition of IL-2 production [1]: dose dependent manner
AP-1 DNA binding activation (AP-1 DNA binding): does not affect
